Data on two compounds can be found in patent publication US10111858B2, “Pharmaceutical for prophylaxis or treatment of hypertension” (Daiichi Sankyo Company, Limited, priority 2013, dated 2018).

What all share (type): in vivo, rat
Assay [1] deals with Dahl rats (salt-sensitive hypertensive rats). In words: Combined administration of MR antagonist and angiotensin II receptor antagonist: inhibitory action on blood pressure elevation (Example 1). The note with it: male Dahl rats, 8% salt diet, oral for 6 weeks, trough on day 42; compound (Ia) 1.0 mg/kg, olmesartan medoxomil 10 mg/kg, alone or combined; mean±standard error. The protocol: Male Dahl rats (DIS/Eis [Dahl-Iwai S], SPF grade, supplier: Japan SLC, Inc., salt-sensitive hypertensive rats) at 7 weeks of age were divided into groups (6 rats per group).
(§1) In a normal group and a control group, 0.5% methyl cellulose solution was orally administered for 6 weeks, and in the other groups, a test substance was orally administered for 6 weeks. The test substance was suspended in 0.5% methyl cellulose solution and administered at a volume of 2 mL/kg. Additionally, in the groups other than the normal group, an 8% salt diet (FR-2 containing 8% NaCl, manufactured by Funabashi Farm Co., Ltd.) was given ad libitum from the start of administration of the test substance. The composition of the groups and the administered test substances [in parentheses] are as follows.
Group 3: compound (Ia) administration group [compound (Ia) (1.0 mg/kg)]
Group 4: olmesartan medoxomil administration group [olmesartan medoxomil (10 mg/kg)]
Group 5: combined administration group [compound (Ia) (1.0 mg/kg)+olmesartan medoxomil (10 mg/kg)]
The results obtained by measuring systolic blood pressure using a noninvasive sphygmomanometer for rats and mice (BP-98A, Softron Co., Ltd.) during the trough period at the 6th week of administration of the test substance (on day 42 from the start of administration of the test substance) are shown in Table 1 (the values in the table represent mean±standard error).

The test system is the same in assay [2]. Nature of the assay: Combined administration of MR antagonist and calcium antagonist: inhibitory action on blood pressure elevation (Example 2). Conditions: male Dahl rats, 8% salt diet, oral for 6 weeks, trough on day 41; compound (Ia) 0.1 mg/kg, amlodipine 1 mg/kg, alone or combined; mean±standard error.
Experimental: In a normal group and a control group, 0.5% methyl cellulose solution was orally administered for 6 weeks, and in the other groups, a test substance was orally administered for 6 weeks. The test substance was suspended in 0.5% methyl cellulose solution and administered at a volume of 2 mL/kg. Additionally, in the groups other than the normal group, an 8% salt diet (FR-2 containing 8% NaCl, manufactured by Funabashi Farm Co., Ltd.) was given ad libitum from the start of administration of the test substance. The composition of the groups, the administered test substances [ in parentheses], and the number of rats (n) per group are as follows.
Group 4: amlodipine administration group [amlodipine (1 mg/kg)] n=6
Assay [3] shares this test system. Nature of the assay: Combined administration of MR antagonist and diuretic: inhibitory action on blood pressure elevation (Example 3). Conditions: male Dahl rats, 8% salt diet, oral for 6 weeks, trough on day 40; compound (Ia) 0.3 mg/kg, hydrochlorothiazide 1 mg/kg, alone or combined; mean±standard error. The protocol:
(§2) Male Dahl rats (DIS/Eis [Dahl-Iwai S], SPF grade, supplier: Japan SLC, Inc., salt-sensitive hypertensive rats) at 7 weeks of age were divided into groups (6 or 9 rats per group).
as §1, with “groups,” for “groups and”, “the parentheses], and the number of rats (n) per group” for “parentheses]”, “follows. […]” for “follows.”
(§3) Systolic blood pressure was measured by using a noninvasive sphygmomanometer for rats and mice (BP-98A, Softron Co., Ltd.) during the trough period at the 6th week of administration of the test substance (on day 40 from the start of administration of the test substance). In addition, on day 41 from the start of administration of the test substance, urine collection for 24-hour was performed using a metabolic cage (2100-R, Watanabe Isolator Systems Co., Ltd.), and the daily urinary protein excretion per body weight was calculated.

Assay [4] shares this test system. In words: Combined administration of MR antagonist and diuretic: inhibitory action on proteinuria (Example 3). Conditions: male Dahl rats, 8% salt diet, oral for 6 weeks, 24-hour urine collection on day 41; compound (Ia) 0.3 mg/kg, hydrochlorothiazide 1 mg/kg, alone or combined; mean±standard error. The method, then: as §2
as §1, with “groups,” for “groups and”, “the parentheses], and the number of rats (n) per group” for “parentheses]”, “follows. […]” for “follows.”
as §3

In the case of `Cc1c(C(=O)Nc2ccc(S(C)(=O)=O)cc2)cn(CCO)c1-c1ccccc1C(F)(F)F` (atropisomer, axis not shown) [compound (Ia), (S)-1-(2-hydroxyethyl)-4-methyl-N-[4-(methylsulfonyl)phenyl]-5-[2-(trifluoromethyl)phenyl]-1H-pyrrole-3-carboxamide], the Systolic blood pressure in assay [1] stood at 170 ± 4 mmHg; in assay [2], 207 ± 7 mmHg; in assay [3] it was 196 ± 7 mmHg. For the same compound, in assay [4], the “Daily urinary protein excretion” value amounted to 190 ± 16 mg/kg/day.

For `NS(=O)(=O)c1cc2c(cc1Cl)NCNS2(=O)=O` [hydrochlorothiazide, 6-chloro-3,4-dihydro-2H-1,2,4-benzothiadiazine-7-sulfonamide 1,1-dioxide, reference compound], the Systolic blood pressure in assay [3] is listed as 212 ± 3 mmHg. In addition, in assay [4], the “Daily urinary protein excretion” value came to 320 ± 65 mg/kg/day.
